Test results taken from ChEMBL document CHEMBL1134045, “Inhibition of BCRP-mediated drug efflux by fumitremorgin-type indolyl diketopiperazines” (Bioorg Med Chem Lett, 2001).

Key:
AIK-T8 = test: Ability to inhibit […] activity at 2.5 uM and 200 ng/ml PSC833 in a mitoxantrone accumulation assay on T8 human cell line; type: ADME, cell-based; details: aik-t8, 2.5 µM
T6400 = test: Relative cellular accumulation of mitoxantrone determined with the compound at 2.5 uM and mitoxantrone at 10 uM on T6400 mouse cell line; type: functional

| SMILES | Fluorescence (AIK-T8) [%] | Fluorescence (T6400) [%] |
| --- | --- | --- |
| CC(C)C1c2[nH]c3ccccc3c2C[C@H]2C(=O)NC(CCC(=O)OC(C)(C)C)C(=O)N12 (stereo partly drawn) | 381 | 149 |
| CCC1c2[nH]c3ccccc3c2C[C@H]2C(=O)NC(Cc3ccccc3)C(=O)N12 (stereo partly drawn) | 228 | 63 |
| CC(C)CC1c2[nH]c3ccccc3c2C[C@H]2C(=O)NC(COC(C)(C)C)C(=O)N12 (stereo partly drawn) | 522 | 216 |
| CCCCCC1c2[nH]c3ccccc3c2C[C@H]2C(=O)NC(COC(C)(C)C)C(=O)N12 (stereo partly drawn) | 607 | 275 |
| CCC1c2[nH]c3ccccc3c2C[C@H]2C(=O)NC(Cc3c[nH]c4ccccc34)C(=O)N12 (stereo partly drawn) | 354 | 96 |
| CCC1c2[nH]c3ccccc3c2C[C@H]2C(=O)NC(CCCCNC(=O)OC(C)(C)C)C(=O)N12 (stereo partly drawn) | 313 | 74 |
| CCCCCC1c2[nH]c3ccccc3c2C[C@H]2C(=O)NC(C)C(=O)N12 (stereo partly drawn) | 436 | 175 |
| CC(C)CC1c2[nH]c3ccccc3c2C[C@H]2C(=O)NC(N3CCCC3)C(=O)N12 (stereo partly drawn) | 187 | 56 |
| CCC1c2[nH]c3ccccc3c2C[C@H]2C(=O)NC(N3CCCC3)C(=O)N12 (stereo partly drawn) | 119 | 42 |
| O=C1NC(N2CCCC2)C(=O)N2C(C3CCCCC3)c3[nH]c4ccccc4c3C[C@@H]12 (stereo partly drawn) | 313 | 85 |
| CCCCCC1c2[nH]c3ccccc3c2C[C@H]2C(=O)NC(Cc3c[nH]c4ccccc34)C(=O)N12 (stereo partly drawn) | 601 | 242 |
| CC(C)(C)OCC1NC(=O)[C@@H]2Cc3c([nH]c4ccccc34)C(c3ccccc3)N2C1=O (stereo partly drawn) | 339 | 106 |
| O=C1NC(Cc2ccccc2)C(=O)N2C(c3ccccc3)c3[nH]c4ccccc4c3C[C@@H]12 (stereo partly drawn) | 376 | 112 |
| CC(C)CC1c2[nH]c3ccccc3c2C[C@H]2C(=O)NC(CCC(=O)OC(C)(C)C)C(=O)N12 (stereo partly drawn) | 711 | 348 |
| CCCCCC1c2[nH]c3ccccc3c2C[C@H]2C(=O)NC(CCCCNC(=O)OC(C)(C)C)C(=O)N12 (stereo partly drawn) | 599 | 302 |
| CC(C)C1c2[nH]c3ccccc3c2C[C@H]2C(=O)NC(N3CCCC3)C(=O)N12 (stereo partly drawn) | 136 | 45 |
| O=C1NC(Cc2c[nH]c3ccccc23)C(=O)N2C(C3CCCCC3)c3[nH]c4ccccc4c3C[C@@H]12 (stereo partly drawn) | 410 | 158 |
| O=C1NC(Cc2c[nH]c3ccccc23)C(=O)N2C(c3ccccc3)c3[nH]c4ccccc4c3C[C@@H]12 (stereo partly drawn) | 376 | 125 |
| O=C1NC(N2CCCC2)C(=O)N2C(c3ccccc3)c3[nH]c4ccccc4c3C[C@@H]12 (stereo partly drawn) | 176 | 54 |
| CC(C)CC1c2[nH]c3ccccc3c2C[C@H]2C(=O)NC(C)C(=O)N12 (stereo partly drawn) | 333 | 80 |
| CC(C)CC1c2[nH]c3ccccc3c2C[C@H]2C(=O)NC(Cc3c[nH]c4ccccc34)C(=O)N12 (stereo partly drawn) | 535 | 279 |

| SMILES | Fluorescence (AIK-T8) [%] | Fluorescence (T6400) [%] |
| --- | --- | --- |
| CCCCCC1c2[nH]c3ccccc3c2C[C@H]2C(=O)NC(CCC(=O)OC(C)(C)C)C(=O)N12 (stereo partly drawn) | 592 | 283 |
| CC1NC(=O)[C@@H]2Cc3c([nH]c4ccccc34)C(C(C)C)N2C1=O (stereo partly drawn) | 156 | 49 |
| CC(C)C1c2[nH]c3ccccc3c2C[C@H]2C(=O)NC(CCCCNC(=O)OC(C)(C)C)C(=O)N12 (stereo partly drawn) | 452 | 133 |
| CC(C)(C)OC(=O)NCCCCC1NC(=O)[C@@H]2Cc3c([nH]c4ccccc34)C(c3ccccc3)N2C1=O (stereo partly drawn) | 305 | 85 |
| CC1NC(=O)[C@@H]2Cc3c([nH]c4ccccc34)C(c3ccccc3)N2C1=O (stereo partly drawn) | 181 | 53 |
| CC(C)C1c2[nH]c3ccccc3c2C[C@H]2C(=O)NC(Cc3c[nH]c4ccccc34)C(=O)N12 (stereo partly drawn) | 310 | 96 |
| CC(C)(C)OC(=O)CCC1NC(=O)[C@@H]2Cc3c([nH]c4ccccc34)C(c3ccccc3)N2C1=O (stereo partly drawn) | 313 | 100 |
| O=C1NC(Cc2ccccc2)C(=O)N2C(C3CCCCC3)c3[nH]c4ccccc4c3C[C@@H]12 (stereo partly drawn) |  | 91 |
| CC(C)(C)OCC1NC(=O)[C@@H]2Cc3c([nH]c4ccccc34)C(C3CCCCC3)N2C1=O (stereo partly drawn) | 672 | 276 |
| CCC1c2[nH]c3ccccc3c2C[C@H]2C(=O)NC(C)C(=O)N12 (stereo partly drawn) | 114 | 43 |
| CCC1c2[nH]c3ccccc3c2C[C@H]2C(=O)NC(COC(C)(C)C)C(=O)N12 (stereo partly drawn) | 225 | 71 |
| CCCCCC1c2[nH]c3ccccc3c2C[C@H]2C(=O)NC(N3CCCC3)C(=O)N12 (stereo partly drawn) | 370 | 119 |
| CC1NC(=O)[C@@H]2Cc3c([nH]c4ccccc34)C(C3CCCCC3)N2C1=O (stereo partly drawn) | 268 | 74 |
| CC(C)C1c2[nH]c3ccccc3c2C[C@H]2C(=O)NC(COC(C)(C)C)C(=O)N12 (stereo partly drawn) | 334 | 93 |
| CC(C)CC1c2[nH]c3ccccc3c2C[C@H]2C(=O)NC(Cc3ccccc3)C(=O)N12 (stereo partly drawn) | 431 | 191 |
| CCC1c2[nH]c3ccccc3c2C[C@H]2C(=O)NC(CCC(=O)OC(C)(C)C)C(=O)N12 (stereo partly drawn) | 313 | 80 |
| CC(C)CC1c2[nH]c3ccccc3c2C[C@H]2C(=O)NC(CCCCNC(=O)OC(C)(C)C)C(=O)N12 (stereo partly drawn) | 649 | 305 |
| CCCCCC1c2[nH]c3ccccc3c2C[C@H]2C(=O)NC(Cc3ccccc3)C(=O)N12 (stereo partly drawn) | 514 | 199 |
| CC(C)(C)OC(=O)NCCCCC1NC(=O)[C@@H]2Cc3c([nH]c4ccccc34)C(C3CCCCC3)N2C1=O (stereo partly drawn) | 629 | 278 |
| CC(C)C1c2[nH]c3ccccc3c2C[C@H]2C(=O)NC(Cc3ccccc3)C(=O)N12 (stereo partly drawn) | 359 | 104 |
| CC(C)(C)OC(=O)CCC1NC(=O)[C@@H]2Cc3c([nH]c4ccccc34)C(C3CCCCC3)N2C1=O (stereo partly drawn) | 638 | 252 |
